Marks after values point to notes of the source that are not given here.
Experiments:
MT2 receptor = target: T1, MT2 receptor (Homo sapiens, UniProt P49286); assay: Melatonin receptor MT2 binding assay, displacement of [125I]2-Iodomelatonin; conditions: for inhibition at 0.015625 µg/mL: 0.015625 μg/mL; for inhibition at 0.03125 µg/mL: 0.03125 μg/mL; for inhibition at 0.0625 µg/mL: 0.0625 μg/mL; for inhibition at 0.125 µg/mL: 0.125 μg/mL; for inhibition at 0.25 µg/mL: 0.25 μg/mL; for inhibition at 1 µg/mL: 1 μg/mL; for inhibition at 2 µg/mL: 2 μg/mL; for inhibition at 4 µg/mL: 4 μg/mL; for inhibition at 8 µg/mL: 8 μg/mL; for inhibition against MT2 receptor: concentration range from 8 ug/mL to 0.015625 μg/mL
T1 construct: expressed in transfected cells; host or cells: CHO-K1 cells (membranes)
T1 sequence (P49286 1-362): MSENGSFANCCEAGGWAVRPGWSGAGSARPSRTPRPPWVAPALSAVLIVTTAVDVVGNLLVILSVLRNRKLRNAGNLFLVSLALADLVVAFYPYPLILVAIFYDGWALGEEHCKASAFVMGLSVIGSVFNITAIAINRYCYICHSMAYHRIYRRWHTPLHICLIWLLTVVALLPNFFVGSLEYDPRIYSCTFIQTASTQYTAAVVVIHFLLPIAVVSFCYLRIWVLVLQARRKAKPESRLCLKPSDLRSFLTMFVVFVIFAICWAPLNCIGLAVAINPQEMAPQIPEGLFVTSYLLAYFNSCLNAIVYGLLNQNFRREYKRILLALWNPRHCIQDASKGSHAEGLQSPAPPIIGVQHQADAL

MT1 receptor = target: T2, MT1 receptor (Homo sapiens, UniProt P48039); assay: Melatonin receptor MT1 binding assay, displacement of [125I]2-Iodomelatonin; conditions: for inhibition at 0.015625 µg/mL: 0.015625 μg/mL; for inhibition at 0.03125 µg/mL: 0.03125 μg/mL; for inhibition at 0.0625 µg/mL: 0.0625 μg/mL; for inhibition at 0.125 µg/mL: 0.125 μg/mL; for inhibition at 0.25 µg/mL: 0.25 μg/mL; for inhibition at 0.5 µg/mL: 0.5 μg/mL; for inhibition at 1 µg/mL: 1 μg/mL; for inhibition at 2 µg/mL: 2 μg/mL; for inhibition at 4 µg/mL: 4 μg/mL; for inhibition at 8 µg/mL: 8 μg/mL; for inhibition against MT1 receptor: concentration range from 8 ug/mL to 0.015625 μg/mL
T2 construct: expressed in transfected cells; host or cells: CHO-K1 cells (membranes)
T2 sequence (P48039 whole entry): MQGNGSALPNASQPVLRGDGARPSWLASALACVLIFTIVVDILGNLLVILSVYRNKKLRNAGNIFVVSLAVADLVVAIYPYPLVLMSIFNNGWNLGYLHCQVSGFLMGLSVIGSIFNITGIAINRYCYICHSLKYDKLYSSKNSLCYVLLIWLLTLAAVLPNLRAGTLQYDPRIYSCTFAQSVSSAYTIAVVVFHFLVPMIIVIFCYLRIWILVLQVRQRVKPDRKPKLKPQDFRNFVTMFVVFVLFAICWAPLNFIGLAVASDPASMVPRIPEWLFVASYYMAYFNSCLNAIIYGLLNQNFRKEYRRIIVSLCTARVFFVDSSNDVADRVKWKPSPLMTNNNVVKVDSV
Method: Human recombinant melatonin receptors (MT1 and MT2) were expressed in CHO-K1 cells and resuspended in buffer. The membranes containing recombinant receptors were incubated with test compounds in combination with 0.05 nM [125I]2-lodomelatonin for 180 minutes at 25° C. Membranes were immobilized on filters before being washed and the [125I]2-Iodomelatonin was counted. Test compounds that bound to MT1 or MT2 in the same binding site as melatonin displaced [125I]2-lodomelatonin, reducing the count. […] 0.00021 μM Melatonin was used as a positive control to displace [125I]2-Iodomelatonin (Paul et al., 1999; Beresford et al., 1998).
All samples were dissolved in 1% DMSO.

Male BALB/C mice [1] = assay: Sleep time induced by pentobarbital sodium (36 mg/kg i.p.) after 32 days of dosing; assay type: in vivo
Method: Male BALB/C mice (18 g˜22 g) were randomly assigned to groups of vehicle control (sterile water); positive control group, melatonin 1 mg/kg BW (0.1 g/L); low dose group, a composition derived from enriched for one or more phenylpropanoid acids and benzoxazinoids 250 mg/kg BW (25 g/L in sterile water); middle dose group, a composition derived from enriched for one or more phenylpropanoid acids and benzoxazinoids 500 mg/kg BW (50 g/L in sterile water); and high dose group, a composition derived from enriched for one or more phenylpropanoid acids and benzoxazinoids 1000 mg/kg BW (100 g/L in sterile water). Each animal received the respective dose daily for 32 consecutive days. 15 min after the last dose, each group of mice was intraperitoneally injected with 36 mg/kg pentobarbital sodium (in 0.1 mL/10 g). The sleep time of each mouse was recorded and the difference of sleep time between a composition derived from enriched for one or more phenylpropanoid acids and benzoxazinoids-treated groups and vehicle control was determined.

Male BALB/C mice [2] = assay: Acute effect on sleep following a single oral administration; assay type: in vivo; conditions: single oral 1 mg/kg
Method: Male BALB/C mice (18 g˜22 g) were randomly assigned to groups of vehicle control (sterile water); positive control group, melatonin 1 mg/kg BW (0.1 g/L); low dose group, a composition derived from enriched for one or more phenylpropanoid acids and benzoxazinoids 250 mg/kg BW (25 g/L in sterile water); middle dose group, a composition derived from enriched for one or more phenylpropanoid acids and benzoxazinoids 500 mg/kg BW (50 g/L in sterile water); and high dose group, a composition derived from enriched for one or more phenylpropanoid acids and benzoxazinoids 1000 mg/kgBW (100 g/L in sterile water). Mice were administered the respective treatment group and observed for 60 min monitor the direct impact of test compounds on sleep following a single oral administration. When naive mice are placed into a supine position, they instantaneously turn to the upright position. However, mice under the hypnotic dose of pentobarbital remain on the supine position for measurable amount of time. Sleeping was indexed as the disappearance of reflex to turnover to the right side, and mouse was considered asleep when the time to turn over to the side was over 30 s after mouse was treated with a composition derived from enriched for one or more phenylpropanoid acids and benzoxazinoids. In the current study, none of the treatment groups induce sleep following a single oral administration (Table 15).

Male BALB/C mice [3] = assay: Sleep latency / sleeping incidence with subthreshold pentobarbital sodium (26 mg/kg i.p.) after 32 days of dosing; assay type: in vivo; conditions: 1 mg/kg
Method: Male BALB/C mice (18 g˜22 g) were randomly assigned to groups of vehicle control (sterile water); positive control group, melatonin 1 mg/kg BW (0.1 g/L); low dose group, a composition derived from enriched for one or more phenylpropanoid acids and benzoxazinoids 250 mg/kg BW (25 g/L in sterile water); middle dose group, a composition derived from enriched for one or more phenylpropanoid acids and benzoxazinoids 500 mg/kg BW (50 g/L in sterile water); and high dose group, a composition derived from enriched for one or more phenylpropanoid acids and benzoxazinoids 1000 mg/kg BW (100 g/L in sterile water). Each animal received the respective dose daily for 32 consecutive days. Mice from each group were intraperitoneally injected with 26 mg/kg pentobarbital sodium (0.1 mL/10 g BW), 15 min after the last dose to induce subthreshold hypnosis. The numbers of mice that lose the reflex to turnover to the right side over 1 min after injection of pentobarbital sodium were recorded for 30 min. The incidence of sleeping mice was analyzed to compare the difference between the tested substance groups and vehicle control. Latency of sleep is the number of animals with loss of the righting reflex in duration of time elapsed after pentobarbital administrations. […] As a result, the subthreshold dose of pentobarbital was given to each mouse 15 min after the last dose of test materials to assess the effect of materials on sleep latency. Thirty minutes post pentobarbital injection, the number of mice with no reflex to turn over to the right side over the duration of 1 min was recorded. Data were reported as incidence of sleeping. […] These incidences were statistically significant for both the high dose of UP165 and melatonin compared to the vehicle control animals. In comparison, the incidence in the vehicle-treated group was only 20%. Positive trends (60% of mice both in the 250 and 500 mg/kg group) were also observed for the low and mid doses of UP165.

`COc1ccc2c(c1)OC(O[C@@H]1O[C@H](CO)[C@@H](O)[C@H](O)[C@H]1O)C(=O)N2` (stereo partly drawn) [MW357, 2-(β-D-Glucopyranosyloxy)-7-methoxy-2H-1,4-benzoxazin-3(4H)-one] was tested, and the inhibition at 0.015625 µg/mL (MT2 receptor) was 4%, the inhibition at 0.03125 µg/mL (MT2 receptor) was 2% and the inhibition at 0.0625 µg/mL (MT2 receptor) was 1%. It also gave an inhibition at 0.125 µg/mL (MT2 receptor) of -6%, an inhibition at 0.25 µg/mL (MT2 receptor) of 5% and an inhibition at 0.5 µg/mL (MT2 receptor; 0.5 μg/mL) of 4%. For the same compound, the inhibition at 1 µg/mL (MT2 receptor) was 3%, the inhibition at 2 µg/mL (MT2 receptor) was 10% and the inhibition at 4 µg/mL (MT2 receptor) was 5%. For the same compound, the inhibition at 8 µg/mL (MT2 receptor) was 3%, the “inhibition against MT2 receptor” value (MT2 receptor) was “Neither compound show any inhibition” and the inhibition at 0.015625 µg/mL (MT1 receptor) was 3%. The inhibition at 0.03125 µg/mL (MT1 receptor) was 1%, the inhibition at 0.0625 µg/mL (MT1 receptor) was -4% and the inhibition at 0.125 µg/mL (MT1 receptor) was -1%. It also gave an inhibition at 0.25 µg/mL (MT1 receptor) of 0%, an inhibition at 0.5 µg/mL (MT1 receptor) of -5% and an inhibition at 1 µg/mL (MT1 receptor) of -2%. The inhibition at 2 µg/mL (MT1 receptor) was -4%, the inhibition at 4 µg/mL (MT1 receptor) was -5% and the inhibition at 8 µg/mL (MT1 receptor) was 0%. For the same compound, the “inhibition against MT1 receptor” value (MT1 receptor) was “Neither compound show any inhibition”.

For 3-methoxy-hydrocoumaric acid, the “MT2 receptor binding (inhibition)” value (MT2 receptor; isolated compounds, 0.5 μg/mL) was 8.9% and the “MT2 receptor binding (inhibition)” value (MT2 receptor; isolated compounds, 2.5 μg/mL) was 22.9%.

Compound `O=C(O)CCc1ccc(O)cc1` [Phloretic acid] has an inhibition at 5 µg/mL (MT2 receptor; isolated compounds, 5 μg/mL) of 69% and an inhibition at 25 µg/mL (MT2 receptor; isolated compounds, 25 μg/mL) of 94%.

In the case of `COc1cc(/C=C/C(=O)O)ccc1O` [Ferulic acid], the inhibition at 0.5 µg/mL (MT2 receptor; isolated compounds, 0.5 μg/mL) is reported as 2.6% and the inhibition at 2.5 µg/mL (MT2 receptor; isolated compounds, 2.5 μg/mL) is reported as 1.6%.

`COc1ccc2nc(O)oc2c1` [6-MBOA, 6-methoxy-2-benzoxazolol, reference compound] was tested, and the inhibition at 0.815 µM (MT2 receptor; 0.815 μM) was -12%, the inhibition at 1.63 µM (MT2 receptor; 1.63 μM) was -4% and the inhibition at 3.26 µM (MT2 receptor; 3.26 μM) was 8%. For the same compound, the inhibition at 6.52 µM (MT2 receptor; 6.52 μM) was 11%, the inhibition at 13.04 µM (MT2 receptor; 13.04 μM) was 15% and the “inhibition of 2-lodomelatonin binding to MT2” value (MT2 receptor; at the concentrations tested (0.815 to 13.04 μM)) was “did not inhibit”. It also gave an inhibition at 0.0032 µM (MT1 receptor; 0.0032 μM) of 2%, an inhibition at 0.0064 µM (MT1 receptor; 0.0064 μM) of 3% and an inhibition at 0.013 µM (MT1 receptor; 0.013 μM) of 8%. For the same compound, the inhibition at 0.025 µM (MT1 receptor; 0.025 μM) was 11%, the inhibition at 0.051 µM (MT1 receptor; 0.051 μM) was 5% and the inhibition at 0.102 µM (MT1 receptor; 0.102 μM) was 1%. It also gave an inhibition at 0.204 µM (MT1 receptor; 0.204 μM) of 7%, an inhibition at 0.407 µM (MT1 receptor; 0.407 μM) of 6% and an inhibition at 0.815 µM (MT1 receptor; 0.815 μM) of 7%. The inhibition at 1.63 µM (MT1 receptor; 1.63 μM) was 8% and the “inhibition of 2-lodomelatonin binding to MT1” value (MT1 receptor; at the concentrations tested (3.2 nM to 1.63 μM)) was “did not inhibit”.

`COc1ccc2[nH]cc(CCNC(C)=O)c2c1` [Melatonin] was tested, and the “increase in sleep time compared to vehicle control” value (Male BALB/C mice [1]; 1 mg/kg) was 12.0 ± 1.3 min, the “Sleep Time” value (Male BALB/C mice [1]; 1 mg/kg daily for 32 days, Mean ± SD) was 42.6 ± 10.7 min and the Incidence of sleeping (Male BALB/C mice [2]) was 0%. For the same compound, the “Sleeping No.” value (Male BALB/C mice [2]; of 15 mice) was 0, the Incidence of sleeping (Male BALB/C mice [3]) was 80%* and the “Sleeping No.” value (Male BALB/C mice [3]; of 15 mice) was 12. It also gave an Incidence of sleeping (Male BALB/C mice [3]; listed as melatonin) of 80%.

For `O=C(O)/C=C/c1ccc(O)cc1` [p-coumaric acid], the inhibition at 0.5 µg/mL (MT2 receptor; isolated compounds, 0.5 μg/mL) was 0.5% and the inhibition at 2.5 µg/mL (MT2 receptor; isolated compounds, 2.5 μg/mL) was 6.7%.

Compound `COc1ccc2c(c1)OC(O[C@@H]1O[C@H](CO)[C@@H](O)[C@H](O)[C@H]1O)C(=O)N2OC` (stereo partly drawn) [MW387, 2-(β-D-Glucopyranosyloxy)-4,7-dimethoxy-2H-1,4-benzoxazin-3(4H)-one] has an inhibition at 0.015625 µg/mL (MT2 receptor) of -4%, an inhibition at 0.03125 µg/mL (MT2 receptor) of -6% and an inhibition at 0.0625 µg/mL (MT2 receptor) of -2%. It also gave an inhibition at 0.125 µg/mL (MT2 receptor) of -6%, an inhibition at 0.25 µg/mL (MT2 receptor) of -3% and an inhibition at 0.5 µg/mL (MT2 receptor; 0.5 μg/mL) of 7%. It also gave an inhibition at 1 µg/mL (MT2 receptor) of -2%, an inhibition at 2 µg/mL (MT2 receptor) of 0% and an inhibition at 4 µg/mL (MT2 receptor) of 3%. The inhibition at 8 µg/mL (MT2 receptor) was 4%, the “inhibition against MT2 receptor” value (MT2 receptor) was “Neither compound show any inhibition” and the inhibition at 0.015625 µg/mL (MT1 receptor) was 2%. For the same compound, the inhibition at 0.03125 µg/mL (MT1 receptor) was -3%, the inhibition at 0.0625 µg/mL (MT1 receptor) was -6% and the inhibition at 0.125 µg/mL (MT1 receptor) was -2%. It also gave an inhibition at 0.25 µg/mL (MT1 receptor) of 6%, an inhibition at 0.5 µg/mL (MT1 receptor) of 6% and an inhibition at 1 µg/mL (MT1 receptor) of 1%. For the same compound, the inhibition at 2 µg/mL (MT1 receptor) was -1%, the inhibition at 4 µg/mL (MT1 receptor) was -5% and the inhibition at 8 µg/mL (MT1 receptor) was 3%. The “inhibition against MT1 receptor” value (MT1 receptor) was “Neither compound show any inhibition”.

For `COc1ccc2c(c1)OC(O)C(=O)N2` (stereo not drawn) [HMBOA, 2-Hydroxy-7-methoxy-2H-1,4-benzoxazin-3(4H)-one], the inhibition at 0.5 µg/mL (MT2 receptor; isolated compounds, 0.5 μg/mL) was 3.9% and the inhibition at 2.5 µg/mL (MT2 receptor; isolated compounds, 2.5 μg/mL) was 28%.

From US20220387366A1, “Compositions for Regulating Homeostasis of Cortisol and Improving Sleep Quality and Methods of Use and Production Thereof” (Unigen, Inc., priority 2021, published 2022)
